One test concerns the target T1, kappa receptors (Rattus norvegicus, UniProt P34975).
T1 construct: sixty male Long-Evans hooded rats; from tissue; host or cells: whole living male Long-Evans hooded rats (in vivo)
Put plainly: Rat diuresis assay, antagonism of bremazocine-induced urination. Format: in vivo, male Long-Evans hooded rats. To be noted: sc, rats, s.c., urinary output reduced to 50% of effect of 0.08 mg/kg bremazocine alone. The procedure: As such, the compounds of the invention were also evaluated in a rat diuresis assay conducted according to the following procedure described by Leander et al. in Drug Development Research 4:421-427 (1984) in an effort to further establish the ability of the present compounds to block kappa receptors.
According to this procedure, sixty male Long-Evans hooded rats (Charles River Breeding Laboratories, Portage, Mich.) weighing between about 300 and 500 grams each were housed either individually or in pairs in a temperature-controlled (23° C.) colony room which was illuminated between 6:00 A.M. and 6:00 P.M. Rodent chow and tap water were continuously available except during the measurement of urine output. The animals were used repeatedly, but no more frequently than twice a week.
The animals were then injected with various doses of the test compounds. To measure urine output, the animals were removed from the home cages, weighed, injected and placed in metabolism cages for 5 hr. Excreted urine was funneled into graduated cylinders. Cumulative urine volumes were determined at designated time intervals, usually at 2 and 5 hr after injection.
The compounds which are salt forms were dissolved in distilled water. If necessary, the compounds were dissolved in distilled water with the aid of either a few drops of lactic acid or hydrochloric acid and gentle warming. All injections were s.c. in a volume of 1 ml/kg of body weight. During tests for antagonism, two injections were given, one on each side of the body.
In the Table, column 1 provides the Example Number of the compound tested; column 2, the amount of compound in mg/kg necessary to reduce the urinary output to 50% of the effect produced by 0.08 mg/kg of bremazocine alone two hours after injection of bremazocine and the test compound; and column 3, the amount of compound in mg/kg necessary to reduce the urinary output to 50% of the effect produced by 0.08 mg/kg of bremazocine alone five hours after injection of bremazocine and the test compound.

Test [1] concerns the target T2, kappa receptor (Mus musculus, UniProt P33534).
T2 construct: Five CF-1 male mice (Charles River, Portage, Mich.); from tissue; host or cells: whole living CF-1 male mice (in vivo)
Put plainly: in vivo. Set-up: species or system CF-1 male mice. To be noted: sc, read-out: Kappa AD50.

For test [2], the target named is T3, mu receptor (Rattus norvegicus, UniProt P33535).
T3 construct: rat whole brain minus cerebellum for mu and delta sites; from tissue; host or cells: rat whole brain minus cerebellum, frozen pellet fraction
T3 sequence (P33535 whole entry): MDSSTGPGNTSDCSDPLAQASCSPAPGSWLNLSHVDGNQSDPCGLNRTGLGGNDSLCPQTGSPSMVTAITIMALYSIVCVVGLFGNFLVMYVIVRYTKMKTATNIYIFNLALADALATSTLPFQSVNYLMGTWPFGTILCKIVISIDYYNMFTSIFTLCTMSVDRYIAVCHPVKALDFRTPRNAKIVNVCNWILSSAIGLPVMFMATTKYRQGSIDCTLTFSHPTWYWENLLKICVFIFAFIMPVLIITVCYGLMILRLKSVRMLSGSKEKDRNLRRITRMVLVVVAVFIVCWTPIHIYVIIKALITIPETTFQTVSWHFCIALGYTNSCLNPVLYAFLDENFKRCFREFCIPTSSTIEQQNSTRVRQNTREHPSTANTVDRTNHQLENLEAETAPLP
Put plainly: Opioid receptor binding displacement assay, mu site (rat whole brain minus cerebellum, 3H ligand). Set-up: species or system Male Sprague Dawley rats. The method, then: (§1) This assay was conducted by the following procedure.
(§2) Male Sprague Dawley rats for mu and delta site experiments and male Hartley guinea pigs for kappa site experiments were sacrificed via decapitation and the brains were removed. The brain tissue, rat whole brain minus cerebellum for mu and delta sites and guinea pig cortex for the kappa site, was homogenized in a Teflon and glass tissue homogenizer. A supernatant I, pellet IV, fraction was frozen in a nitrogen freezer at 1.33 g/ml concentration and stored for not longer than five weeks prior to use. Pellets were rehydrated with physiological buffer prior to use.
(§3) The reaction was initiated by the addition of the rehydrated tissue which has been preincubated at 37° C. for 20 minutes. The reaction mixture was incubated in a 37° C. water bath for 20 minutes. The reaction was terminated by rapid filtration, (Amicon vacuum manifolds), through Whatman GF/C glass filters that had been presoaked in Krebs-Hepes buffer pH 7.4. The filters were then washed 2× with 5 ml of ice cold Krebs-Hepes buffer pH 7.4. Washed filters were placed in scintillation vials and 10 ml PCS, (Amersham), was added and samples counted in a Searle D-300 beta counter. Means and standard error statistics were calculated for triplicate experimental determinations in certain cases. The procedure was slightly modified for the kappa site. The tissue was pretreated with 100 nM concentrations of mu and delta receptor site blockers. The incubation time for the reaction mixture was 45 minutes at 37° C.

The target in test [3] is T4, mu receptor (Mus musculus, UniProt P42866).
T4 construct: Five CF-1 male mice (Charles River, Portage, Mich.); from tissue; host or cells: whole living CF-1 male mice (in vivo)
T4 sequence (P42866 whole entry): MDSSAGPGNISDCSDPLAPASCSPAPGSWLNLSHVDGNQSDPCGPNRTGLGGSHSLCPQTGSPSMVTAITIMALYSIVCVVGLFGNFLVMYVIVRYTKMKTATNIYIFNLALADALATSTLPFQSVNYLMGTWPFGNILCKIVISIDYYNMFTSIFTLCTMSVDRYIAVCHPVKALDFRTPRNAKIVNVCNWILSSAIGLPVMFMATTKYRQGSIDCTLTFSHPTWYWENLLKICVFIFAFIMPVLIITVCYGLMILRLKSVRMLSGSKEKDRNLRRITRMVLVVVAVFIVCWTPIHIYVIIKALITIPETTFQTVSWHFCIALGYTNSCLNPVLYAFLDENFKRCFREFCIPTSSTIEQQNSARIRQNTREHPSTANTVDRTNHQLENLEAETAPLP
In words: Mouse writhing assay, antagonism of morphine analgesia (mu). The test is classed as in vivo, CF-1 male mice. The note with it: sc, read-out: Mu AD50. In general terms: In writhing tests, fewer writhes than in controls are read as antinociception.

The target of test [4] is T5, kappa receptor (Cavia porcellus, UniProt P41144).
T5 construct: guinea pig cortex for the kappa site; from tissue; host or cells: guinea pig cortex, frozen pellet fraction
T5 sequence (P41144 whole entry): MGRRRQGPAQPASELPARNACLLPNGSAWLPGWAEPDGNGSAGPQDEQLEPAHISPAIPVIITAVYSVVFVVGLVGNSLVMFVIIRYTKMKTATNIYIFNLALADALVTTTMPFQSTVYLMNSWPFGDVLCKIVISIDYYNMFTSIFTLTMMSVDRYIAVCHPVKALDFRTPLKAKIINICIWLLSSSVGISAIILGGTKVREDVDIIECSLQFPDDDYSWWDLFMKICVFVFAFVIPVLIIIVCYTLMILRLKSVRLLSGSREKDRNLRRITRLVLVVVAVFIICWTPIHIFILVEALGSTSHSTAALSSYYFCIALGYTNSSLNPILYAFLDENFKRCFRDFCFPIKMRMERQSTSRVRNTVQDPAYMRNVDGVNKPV
In words: Opioid receptor binding displacement assay, kappa site (guinea pig cortex, 3H ligand). Set-up: species or system male Hartley guinea pigs. The method, then:
as §1, §2, §3

Test [5] concerns meal fed obese Zucker rats. Put plainly: Food consumption assay in meal fed obese Zucker rats. The test is classed as in vivo. The note with it: Rattus norvegicus, sc, 4 h, amount to decrease food consumption 20% during first four hours. From the text:
The following assay was employed to evaluate the ability of the compounds of the invention to effect food and water consumption of meal fed obese Zucker rats.
According to this procedure, 3-4 month old obese Zucker rats were trained to eat food daily from 8:00 A.M. to 4:00 P.M. only, such that the body weight gain approximates that if the rats were fed ad libitum. These rats were allowed to consume water at all times. Four groups of rats with four rats in each group, two female and two male, were formed. One group served as control for the other three groups each day. Each of the other groups were given a subcutaneous dose of the compound to be evaluated. The test compound was formulated in physiological saline containing 10% dimethylsulfoxide by volume.
Animals remained drug free for 4 days before the next test. Food and water consumption of each rat were measured for the first four hours. A test on one compound was run for three consecutive days. The drug effect was expressed as the percent of the control for that test day.
In the Table, column 1 gives the Example Number of the compound evaluated; and column 2 provides the ED20 in mg/kg, wherein ED20 represents the amount of compound evaluated in mg/kg necessary to decrease food consumption 20% during the first four hours of the experiment.

The mark [6] stands for this setting: 2 h, two hours after injection, read-out: AD50 Two Hours.
Setting [7] is: 5 h, five hours after injection, read-out: AD50 Five Hours.
Setting [8] is: rat brain minus cerebellum, pH 7.4, 37° C., 20 minutes, read-out: Ki Mu.
Where [9] appears, read: guinea pig cortex, pH 7.4, 37° C., 45 minutes, mu and delta sites blocked (100 nM), read-out: Ki Kappa.

Where a name gives a salt, the structure may show the parent alone. Read-outs that look alike come from different tables or passages of the source.

T1 sequence (P34975 whole entry): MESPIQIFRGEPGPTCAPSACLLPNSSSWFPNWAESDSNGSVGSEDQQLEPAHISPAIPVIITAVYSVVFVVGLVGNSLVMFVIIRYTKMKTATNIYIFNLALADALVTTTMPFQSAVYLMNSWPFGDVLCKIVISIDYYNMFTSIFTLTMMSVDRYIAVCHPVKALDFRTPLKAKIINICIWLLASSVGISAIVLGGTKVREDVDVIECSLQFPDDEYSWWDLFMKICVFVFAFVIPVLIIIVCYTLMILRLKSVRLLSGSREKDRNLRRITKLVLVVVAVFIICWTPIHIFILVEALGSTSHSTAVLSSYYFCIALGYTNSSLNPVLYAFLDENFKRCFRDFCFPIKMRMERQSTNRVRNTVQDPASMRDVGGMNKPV
T2 sequence (P33534 whole entry): as the sequence (P34975 whole entry) above, with E11D, A17S, P51S, V308A counted along it

One may read the Ki as the equilibrium dissociation constant of an inhibitor or competing ligand from its target. In the case of `C=C(C)CCCN1CCC(C)(c2cccc(O)c2)C(C)C1` (stereo not drawn) [Example 3, trans-(±)-1-(4-Methyl-4-pentenyl)-3,4-dimethyl-4-(3-hydroxyphenyl)piperidine hydrochloride], the ED50 on kappa receptors (setting [6]) was 0.27 mg/kg; at kappa receptors (setting [7]), 0.39 mg/kg; at kappa receptor [1], 0.29 mg/kg; at mu receptor [3] it was 0.08 mg/kg. Also, the Ki on mu receptor [2] is 2.95 ± 1.12 nM; at kappa receptor [4], 13.9 ± 6.66 nM. Also, the ED20 in test [5] was 0.29 mg/kg.

Turning to `C[C@H]1CN(CCC(O)c2ccccc2)CC[C@@]1(C)c1cccc(O)c1` (relative stereo) [Compound A, 4β-(3-Hydroxyphenyl)-3β,4α-dimethyl-α-phenyl-1-piperidinepropanol hydrochloride, reference compound], the ED50 at kappa receptors (setting [6]) was determined as 4.09 mg/kg; at kappa receptors (setting [7]), 2.65 mg/kg; on kappa receptor [1] it was 0.92 mg/kg; on mu receptor [3], 0.05 mg/kg. Moreover, the results for the Ki at mu receptor [2] (setting [8]) and on kappa receptor [4] (setting [9]) were 1 nM and 22.7 nM, respectively. In test [5], this molecule yielded an ED20 of 0.55 mg/kg.

For the molecule `C[C@H]1CN(CCc2ccccc2)CC[C@@]1(C)c1cccc(O)c1` (relative stereo) [Compound D, 3-(3α,4β-Dimethyl-1-phenethyl-4α-piperidyl)phenol hydrochloride, reference compound], the ED50 at kappa receptor [1] stood at 1.38 mg/kg; on mu receptor [3], 0.16 mg/kg. Besides, the Ki came out at 1.2 nM at mu receptor [2] (setting [8]) and 51 nM on kappa receptor [4] (setting [9]). The ED20 in test [5] stood at 0.94 mg/kg.

For `C[C@@H]1CN(CC[C@H](O)C2CCCCC2)CC[C@]1(C)c1cccc(O)c1` [Example 24, trans-(-)-1-[S-(3-Hydroxy-3-cyclohexylpropyl)]-3,4-dimethyl-4-(3-hydroxyphenyl)piperidine], the ED50 at kappa receptor [1] is 0.24 mg/kg; on mu receptor [3], 0.05 mg/kg. For the same molecule, the Ki at mu receptor [2] (setting [8]) was determined as 1.4 ± 0.61 nM; at kappa receptor [4] (setting [9]) it was 11.4 ± 4.29 nM. In test [5], this molecule returned an ED20 of 0.12 mg/kg.

In the case of `CC(C)CCCN1CCC(C)(c2cccc(O)c2)C(C)C1` (stereo not drawn) [Example 15, trans-(±)-1-(4-Methylpentyl)-3,4-dimethyl-4-(3-hydroxyphenyl)piperidine hydrochloride], the ED50 at kappa receptors (setting [6]) was 0.27 mg/kg; at kappa receptors (setting [7]), 0.39 mg/kg; on kappa receptor [1] it was 0.09 mg/kg; on mu receptor [3], 0.11 mg/kg. For the same molecule, the results for the Ki on mu receptor [2] and on kappa receptor [4] were 1.25 ± 0.4 nM and 9.43 ± 1.67 nM, respectively. In addition, the ED20 in test [5] worked out at 3.65 mg/kg.

With `C[C@H]1CN(CC[C@H](O)C2CCCCC2)CC[C@@]1(C)c1cccc(O)c1` [Example 23, trans-(+)-1-[S-(3-Hydroxy-3-cyclohexylpropyl)]-3,4-dimethyl-4-(3-hydroxyphenyl)piperidine], the ED50 on kappa receptors (setting [6]) is 0.4 mg/kg; at kappa receptors (setting [7]), 0.38 mg/kg; on kappa receptor [1], 0.07 mg/kg; on mu receptor [3], 0.01 mg/kg. Further, the Ki on mu receptor [2] (setting [8]) is 0.41 ± 0.09 nM; at kappa receptor [4] (setting [9]) it was 2.02 ± 0.46 nM. The molecule also yielded an ED20 in test [5] of 0.05 mg/kg.

For the molecule `C[C@H]1CN(CCC(O)C2CCCCC2)CC[C@@]1(C)c1cccc(O)c1` (relative stereo) [Example 27, trans-(±)-1-[R,S-(3-Hydroxy-3-cyclohexylpropyl)]-3,4-dimethyl-4-(3-hydroxyphenyl)piperidine hydrochloride], the ED50 is 0.14 mg/kg on kappa receptor [1] and 0.07 mg/kg at mu receptor [3]. The Ki at mu receptor [2] (setting [8]) came out at 0.22 ± 0.03 nM; on kappa receptor [4] (setting [9]), 5.04 ± 0.58 nM. In addition, in test [5], the ED20 was found to be 0.04 mg/kg.
